# From PubChem BioAssay (NCI)
#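 How tested: cells in 96-well plates exposed to compound for 48 hours at five concentrations. TGI: concentration producing complete growth inhibition.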
# Columns and labels:
# Assay in all cases: NCI anticancer screen, dose series, 48 h
# [1] = tested on: BT-549 breast
# [2] = tested on: OVCAR-4 ovarian
# [3] = tested on: MCF7 breast
# [4] = tested on: OVCAR-5 ovarian
# [5] = tested on: A498 renal
# [6] = tested on: SK-MEL-5 melanoma
# [7] = tested on: EKVX NSCLC
# [8] = tested on: SK-MEL-2 melanoma
# [9] = tested on: NCI-H522 lung
# [10] = tested on: HCT-116 colon
# [11] = tested on: HOP-62 NSCLC
# [12] = tested on: MALME-3M melanoma
# [13] = tested on: HS 578T breast
# [14] = tested on: A549 NSCLC
# [15] = tested on: RPMI-8226 leukemia
# [16] = tested on: 786-0 renal
# [17] = tested on: CCRF-CEM leukemia
# [18] = tested on: PC-3 prostate
# [19] = tested on: SK-OV-3 ovarian
# [20] = tested on: TK-10 renal
# [21] = tested on: OVCAR-3 ovarian
# [22] = tested on: UO-31 renal
# [23] = tested on: HT29 colon
# [24] = tested on: T-47D breast
# [25] = tested on: HOP-92 NSCLC
# [26] = tested on: HCT-15 colon
# [27] = tested on: U251 CNS
# [28] = tested on: OVCAR-8 ovarian
# [29] = tested on: CAKI-1 renal
# [30] = tested on: SW-620 colon
# [31] = tested on: SK-MEL-28 melanoma
# [32] = tested on: HCC-2998 colon
# [33] = tested on: COLO 205 colon
# [34] = tested on: UACC-257 melanoma
# [35] = tested on: NCI-H460 lung
# [36] = tested on: MDA-MB-231 breast
# [37] = tested on: UACC-62 melanoma
# [38] = tested on: IGROV1 ovarian
# [39] = tested on: SF-539 CNS
# [40] = tested on: RXF 393 renal
# [41] = tested on: MDA-N
# [42] = tested on: NCI-H226 lung
# [43] = tested on: MOLT-4 leukemia
# [44] = tested on: MDA-MB-435
# [45] = tested on: NCI-H23 lung
# [46] = tested on: ACHN renal
# [47] = tested on: SN12C renal
# [48] = tested on: KM12 colon
# [49] = tested on: SF-268 CNS
# [50] = tested on: SNB-19 CNS
# [51] = tested on: NCI/ADR-RES ovarian
# [52] = tested on: SF-295 CNS
# [53] = tested on: M14 melanoma
# [54] = tested on: LOX IMVI melanoma
# [55] = tested on: DU-145 prostate
# [56] = tested on: SR leukemia
# [57] = tested on: K-562 leukemia
structure (smiles),measurement,setting,value
O=C1NCN(c2ccccc2)C12CCN(CCCN1CCN(CCOC(c3ccc(F)cc3)c3ccc(F)cc3)CC1)CC2,TGI,[1],5.44 µM
same,TGI,[2],9.58 µM
same,TGI,[3],3.99 µM
same,TGI,[4],11.4 µM
same,TGI,[5],3.35 µM
same,TGI,[6],3.09 µM
same,TGI,[7],9.81 µM
same,TGI,[8],3.71 µM
same,TGI,[9],3.69 µM
same,TGI,[10],3.32 µM
same,TGI,[11],3.81 µM
same,TGI,[12],2.68 µM
same,TGI,[13],4.67 µM
same,TGI,[14],4.14 µM
same,TGI,[15],4.95 µM
same,TGI,[16],3.2 µM
same,TGI,[17],> 100 µM
same,TGI,[18],10.9 µM
same,TGI,[19],4.61 µM
same,TGI,[20],3.2 µM
same,TGI,[21],3.86 µM
same,TGI,[22],3.25 µM
same,TGI,[23],3.97 µM
same,TGI,[24],3.09 µM
same,TGI,[25],3.9 µM
same,TGI,[26],5.3 µM
same,TGI,[27],3.45 µM
same,TGI,[28],4.82 µM
same,TGI,[29],5.07 µM
same,TGI,[30],7.87 µM
same,TGI,[31],6.3 µM
same,TGI,[32],2.93 µM
same,TGI,[33],3.18 µM
same,TGI,[34],3.44 µM
same,TGI,[35],4.32 µM
same,TGI,[36],4.43 µM
same,TGI,[37],3.75 µM
same,TGI,[38],4.24 µM
same,TGI,[39],3.26 µM
same,TGI,[40],2.25 µM
same,TGI,[41],3.65 µM
same,TGI,[42],3.84 µM
same,TGI,[43],15.1 µM
same,TGI,[44],3.26 µM
same,TGI,[45],9.69 µM
same,TGI,[46],3.85 µM
same,TGI,[47],4.14 µM
same,TGI,[48],6.09 µM
same,TGI,[49],3.79 µM
same,TGI,[50],6.57 µM
same,TGI,[51],26.7 µM
same,TGI,[52],3.38 µM
same,TGI,[53],3.48 µM
same,TGI,[54],3.39 µM
same,TGI,[55],3.34 µM
same,TGI,[56],6.67 µM
same,TGI,[57],10.5 µM
